# Measurements from patent US20260217701A1, “SELECTIVE BET INHIBITORS AND USES THEREOF” (Tay Therapeutics Limited, priority 2022, published 2026).
# Several values for one entry are separate records, joined by “and”; a condition that tells them apart may be missing. Identical values can stand only once.
# Test: Dog PK study #3 (Compound A PO once daily 5 days, 5/10/20 mg/kg; PK, body weight, hematology)
# Format: in vivo, beagle dogs
# Parameters: Plasma Concentration: unit not given here
# Description: For the third dog pharmacokinetic study, three solutions of different concentrations of Compound A were prepared in 5% DMSO/15% PEG-400/80% (10% VE-TPGS) as outlined in Table 2E. The Compound A solutions were administered to animals orally (PO) once daily over a five-day period. Body weight was recorded prior to dosing, and detailed clinical observations were made prior to dosing and throughout the study, as needed.
# Animals were divided into Day 1 and Day 5 sample collection groups, with animals in the Day 1 collection group having blood samples taken prior to dosing and at 0.25, 0.5, 1, 2, 4, 8, and 24 hours after dosing on day 1. Animals in the Day 5 collection group having blood samples taken prior to dosing and at 0.25, 0.5, 1, 2, 4, 8, and 24 hours after dosing on day 5. Study groups are outlined in Table 3D.
# Blood samples (~0.3 mL) were collected on day according to the following schedule (0.25, 0.5, 1, 2, 4, 8, and 24 h) after day 5 administration of Compound A by venipuncture of peripheral veins except for the dosing vein, and EDTA-K2 was used as anticoagulant. Within 30 minutes of collection, the samples were centrifuged at approximately 2000 times g-force for 10 minutes at 4° C. to obtain blood plasma. The plasma samples were immediately divided into two aliquots (~75 μL each), transferred to a cryogenic vial, and stored in a freezer at −75±15° C. prior to analysis.
# The concentration of Compound A in the blood plasma was determined through LC-MS as previously described. Briefly, the experiments were conducted on a DMPK-LCMS-14-SMBA Triple Quad 6500 Plus instrument with an ACQUITY UPLC BEH C18 1.7 μm (50×2.1 mm) column. The matrix was male beagle dog plasma potassium (K2) EDTA A gradient of 95% water (0.1% formic acid and 2 mM HCOONH4)/95% acetonitrile (0.1% formic acid and 2 mM HCOONH4) was used as the mobile phase. The sample flow rate was 0.6 mL/min.
# The samples were then vortex-mixed for 10 minutes at 800 rpm and centrifuged for 15 minutes at 3220×g at 4° C. 50 μL aliquots of supernatant were transferred to a clean 96-well plate and centrifuged for 5 minutes at 3220×g at 4° C. Samples were then injected into the LC/MS/MS system for quantitative analysis.
# The gathered data were used for pharmacokinetic calculations using T1/2, CO, AUClast, AUCinf, MRTinf, Cl, Vss, and Number of Points for Regression as parameters.
# The cell composition (hematology) of blood samples was analyzed at day 5. Analyses identified the total number of white blood cells, neutrophils, lymphocytes, monocytes, eosinophils, basophils, and platelets in collected samples.
# [1] = Day 1, 5 mg/kg dose PO, individual animals
# [2] = Day 1, 10 mg/kg dose PO, individual animals
# [3] = Day 1, 20 mg/kg dose PO, individual animals
smiles,measurement,setting,value
"Cn1cc(-c2ccccc2)c(-c2cn(C)c(=O)c3[nH]c(-c4cnn(C(F)(F)F)c4)cc23)cc1=O [Compound A, 6-methyl-4-(1-methyl-2-oxo-5-phenyl-1,2-dihydropyridin-4-yl)-2-(1-(trifluoromethyl)-1H-pyrazol-4-yl)-1,6-dihydro-7H-pyrrolo[2,3-c]pyridin-7-one]",Plasma Concentration,"Day 1, 5 mg/kg dose PO, time 0, individual animals",BQL
same,Plasma Concentration,"Day 1, 5 mg/kg dose PO, time 0.25, individual animals",9.79 and 28.1
same,Plasma Concentration,"Day 1, 5 mg/kg dose PO, time 0.25, mean",18.9
same,Plasma Concentration,"Day 1, 5 mg/kg dose PO, time 0.5, individual animals",206 and 326
same,Plasma Concentration,"Day 1, 5 mg/kg dose PO, time 0.5, mean",266
same,Plasma Concentration,"Day 1, 5 mg/kg dose PO, time 1, individual animals",523 and 590
same,Plasma Concentration,"Day 1, 5 mg/kg dose PO, time 1, mean",557
same,Plasma Concentration,"Day 1, 5 mg/kg dose PO, time 2, individual animals",587 and 671
same,Plasma Concentration,"Day 1, 5 mg/kg dose PO, time 2, mean",629
same,Plasma Concentration,"Day 1, 5 mg/kg dose PO, time 4, individual animals",765 and 686
same,Plasma Concentration,"Day 1, 5 mg/kg dose PO, time 4, mean",726
same,Plasma Concentration,"Day 1, 5 mg/kg dose PO, time 8, individual animals",785 and 424
same,Plasma Concentration,"Day 1, 5 mg/kg dose PO, time 8, mean",605
same,Plasma Concentration,"Day 1, 5 mg/kg dose PO, time 24, individual animals",166 and 58.7
same,Plasma Concentration,"Day 1, 5 mg/kg dose PO, time 24, mean",112
same,AUC0-last,[1],7398 ng·h/mL
same,AUCExtra,[1],6.05%
same,AUMCExtra,[1],20.9%
same,Cl_F,[1],10.6 mL/min/kg
same,Cmax,[1],686 ng/mL
same,MRT0-last,[1],7.83 h
same,Tlast,[1],24.0 h
same,Vz_F,[1],5.16 L/kg
same,AUC0-last,"Day 1, 5 mg/kg dose PO, mean",9495 ng·h/mL
same,Tlast,"Day 1, 5 mg/kg dose PO, mean",24.0 h
same,Plasma Concentration,"Day 1, 10 mg/kg dose PO, time 0, individual animals",BQL
same,Plasma Concentration,"Day 1, 10 mg/kg dose PO, time 0.25, individual animals",310 and 258
same,Plasma Concentration,"Day 1, 10 mg/kg dose PO, time 0.25, mean",284
same,Plasma Concentration,"Day 1, 10 mg/kg dose PO, time 0.5, individual animals",948 and 954
same,Plasma Concentration,"Day 1, 10 mg/kg dose PO, time 0.5, mean",951
same,Plasma Concentration,"Day 1, 10 mg/kg dose PO, time 1, individual animals",1330 and 1260
same,Plasma Concentration,"Day 1, 10 mg/kg dose PO, time 1, mean",1295
same,Plasma Concentration,"Day 1, 10 mg/kg dose PO, time 2, individual animals",1820 and 1450
same,Plasma Concentration,"Day 1, 10 mg/kg dose PO, time 2, mean",1635
same,Plasma Concentration,"Day 1, 10 mg/kg dose PO, time 4, individual animals",2010 and 1380
same,Plasma Concentration,"Day 1, 10 mg/kg dose PO, time 4, mean",1695
same,Plasma Concentration,"Day 1, 10 mg/kg dose PO, time 8, individual animals",1080 and 860
same,Plasma Concentration,"Day 1, 10 mg/kg dose PO, time 8, mean",970
same,Plasma Concentration,"Day 1, 10 mg/kg dose PO, time 24, individual animals",138 and 134
same,Plasma Concentration,"Day 1, 10 mg/kg dose PO, time 24, mean",136
same,AUC0-last,[2],15568 ng·h/mL
same,AUC(0-inf),[2],16719 ng·h/mL
same,AUCExtra,[2],5.08% and 6.88%
same,AUMCExtra,[2],18.2% and 23.5%
same,Cl_F,[2],8.12 mL/min/kg and 9.97 mL/min/kg
same,Cmax,[2],1450 ng/mL
same,MRT0-inf,[2],9.54 h
same,MRT0-last,[2],7.84 h
same,Tlast,[2],24.0 h
same,T½,[2],5.95 h
same,Vz_F,[2],3.68 L/kg and 5.14 L/kg
same,AUC0-last,"Day 1, 10 mg/kg dose PO, mean",17527 ng·h/mL
same,AUCExtra,"Day 1, 10 mg/kg dose PO, mean",5.98%
same,AUMCExtra,"Day 1, 10 mg/kg dose PO, mean",20.9%
same,Cl_F,"Day 1, 10 mg/kg dose PO, mean",9.04 mL/min/kg
same,Tlast,"Day 1, 10 mg/kg dose PO, mean",24.0 h
same,Vz_F,"Day 1, 10 mg/kg dose PO, mean",4.41 L/kg
same,Plasma Concentration,"Day 1, 20 mg/kg dose PO, time 0, individual animals",BQL
same,Plasma Concentration,"Day 1, 20 mg/kg dose PO, time 0.25, individual animals",413 and 438
same,Plasma Concentration,"Day 1, 20 mg/kg dose PO, time 0.25, mean",426
same,Plasma Concentration,"Day 1, 20 mg/kg dose PO, time 0.5, individual animals",2090 and 1440
same,Plasma Concentration,"Day 1, 20 mg/kg dose PO, time 0.5, mean",1765
same,Plasma Concentration,"Day 1, 20 mg/kg dose PO, time 1, individual animals",3430 and 3440
same,Plasma Concentration,"Day 1, 20 mg/kg dose PO, time 1, mean",3435
same,Plasma Concentration,"Day 1, 20 mg/kg dose PO, time 2, individual animals",3620 and 5590
same,Plasma Concentration,"Day 1, 20 mg/kg dose PO, time 2, mean",4605
same,Plasma Concentration,"Day 1, 20 mg/kg dose PO, time 4, individual animals",4330 and 6000
same,Plasma Concentration,"Day 1, 20 mg/kg dose PO, time 4, mean",5165
same,Plasma Concentration,"Day 1, 20 mg/kg dose PO, time 8, individual animals",3170 and 4570
same,Plasma Concentration,"Day 1, 20 mg/kg dose PO, time 8, mean",3870
same,Plasma Concentration,"Day 1, 20 mg/kg dose PO, time 24, individual animals",394 and 1810
same,Plasma Concentration,"Day 1, 20 mg/kg dose PO, time 24, mean",1102
same,AUC0-last,[3],86304 ng·h/mL
same,AUC(0-inf),[3],52608 ng·h/mL and 116806 ng·h/mL
same,AUCExtra,[3],6.10% and 26.1%
same,AUMCExtra,[3],20.3% and 58.8%
same,Cl_F,[3],6.34 mL/min/kg and 2.85 mL/min/kg
